Reference: BindingDB's records for doi:10.1021/jm030084x (University of Illinois At Urbana-Champaign, 2003)

Target: farnesyl diphosphate synthase (Leishmania major)
Experiment: Inhibitory activity against Leishmania major Farnesyl-diphosphatesynthase (FPP synthase)

Compound: Cc1cc(C)nc(NC(P(=O)(O)O)P(=O)(O)O)c1 [(4,6-dimethyl-2-pyridinyl)-aminomethylene-1,1-bisphosphonate]
- IC50: > 100 µM

Compound: O=P(O)(O)C(Nc1ccc(Cl)nc1)P(=O)(O)O [[(6-Chloro-pyridin-3-ylamino)-phosphono-methyl]-phosphonic acid]
- IC50: > 100 µM
